Experimental data taken from BindingDB's records for doi:10.1016/s1074-5521(98)90086-2 (Duke University, 1998).
pKi: −log10 of the molar value.

target: 1-aminocyclopropane-1-carboxylate oxidase 1 (Malus domestica, UniProt Q00985); assay: Inhibition Assay
Description: Enzyme inhibition assay using ethylene-forming enzyme (EFE).

Sequence of 1-aminocyclopropane-1-carboxylate oxidase 1 (Q00985 whole entry): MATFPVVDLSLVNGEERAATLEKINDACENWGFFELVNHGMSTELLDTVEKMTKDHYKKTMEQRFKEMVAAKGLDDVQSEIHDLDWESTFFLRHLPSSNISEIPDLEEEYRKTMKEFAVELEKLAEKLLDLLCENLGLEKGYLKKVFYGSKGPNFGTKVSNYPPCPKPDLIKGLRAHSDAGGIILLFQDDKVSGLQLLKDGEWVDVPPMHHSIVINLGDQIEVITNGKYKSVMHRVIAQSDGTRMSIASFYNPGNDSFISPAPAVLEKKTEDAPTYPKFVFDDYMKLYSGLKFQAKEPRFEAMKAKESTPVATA

Row | Compound | pKi
1 | CC(C)(N)C(=O)O [Aminoisobutyric (AIB)] | 3.82
2 | NC1(C(=O)O)CCC1 [Aminocyclobutanecarboxylic acid (ACBC)] | 3.66
3 | CC(C)(NO)C(=O)O [N-hydroxy aminoisobutryic acid] | 4.89
4 | O=C(O)C1(NO)CCC1 [N-Hydroxyaminocyclobutanecarboxylic acid] | 4.74
